Results: PubChem BioAssay AID2060904 (Molecular Pharmacology Branch, DTP, NCI, 2025)
Several values for one entry are separate records, joined by “and”; a condition that tells them apart may be missing. Identical values can stand only once.

Test system: 349418-098-R-PDC complex spheroid viability
Test: Anticancer human tumor 349418-098-R-PDC patient-derived lung adenocarcinoma cell line growth inhibition [RAS]
Conditions: for viability, T/C: stronger effect = lower value
Text: RAS pathway inhibitors in Combinations in Complex Spheroids
A high-throughput screen of multi-cell type tumor spheroids was designed to identify active combinations of RAS pathway inhibitors and targeted small molecules. Complex spheroids include a stromal component modeled by human endothelial cells (HUVEC) and fibroblasts modeled by human mesenchymal stem cells (MSCs). The concentration ranges selected for each drug and investigational agent were based upon clinically achievable concentrations if the clinical Cmax of the agent was known.
Compounds. The drugs and investigational agents: abemaciclib (NSC768073), cobimetinib (NSC768068), divarasib (GDC6063, NSC841802), docetaxel (NSC628503), GDC-1971 (RLY-1971, NSC841576), gemcitabine (NSC613327), inavolisib (NSC800729), ipatasertib (NSC767898), KB-0742 (NSC834161), MRTX-1133 (NSC836407), osimertinib (NSC779217), RMC-4630 (NSC839698), RMC-6236 (NSC851965), RMC-6291 (NSC852671), Ro-3306 (NSC812927), sapanisertib (NSC764658), SN-38 (NSC673596), staurosporine (NSC755774), SY5609 (NSC837396), and tovorafenib (DAY101, NSC766906), were obtained from the National Cancer Institute (NCI) Developmental Therapeutics Program Chemical Repository. The FDA-approved anticancer drug set is available from the NCI Developmental Therapeutics Program. […] The stock solutions were prepared in dimethyl sulfoxide (DMSO, Sigma-Aldrich, St. Louis, MO, cat. D2650) at 800-fold the tested concentration and stored at -70 degrees C prior to their use. All drugs and investigational agents were tested over a range starting from a high concentration at or near the clinical Cmax and decreasing in half-log increments. If the clinical Cmax for an agent had not been determined, the highest concentration tested was 10 microM.
Cell Culture. All cells were maintained in an incubator at 37 degrees C and 5% CO2 with 95% humidity. The PDC lines were cultured according to standard operating procedures established by the NCI PDMR. All PDCs were thawed and cultured in Matrigel-coated flasks prepared with a working solution of 1X Ham's F-12 nutrient mix, without supplementation (Invitrogen, Waltham, MA, cat. 11765054), 100 U/mL penicillin-streptomycin (Invitrogen, cat. 15140122), and 2.5% Matrigel (Corning Inc., Corning, NY, cat. 354248) for the first three passages. The 362531-283-R-J2-PDC and 782815-120-R-J1-PDC lines were cultured in 6C/Colon 1B media, which includes advanced DMEM/F-12 (Thermo Fisher Scientific, cat. 12634028), 10 mM HEPES (Thermo Fisher Scientific, cat. 15630080), 1X GlutaMAX supplement (Thermo Fisher Scientific, cat. 35050061), 0.1 mg/mL primocin (InvivoGen, San Diego, CA, cat. ant-pm-2), 10% defined fetal bovine serum, heat inactivated (HyClone Laboratories Inc., Logan, UT, cat. SH30070.03HI), 50% L-WRN conditioned media (ATCC, cat. CRL-3276), 1.25 mM N-Acetyl-L-cysteine (Sigma-Aldrich, cat. A9165), 10 mM nicotinamide (Sigma-Aldrich, cat. N0636), 1X B-27 supplement (Thermo Fisher Scientific, cat. 17504044), 1X N-2 supplement (Thermo Fisher Scientific, cat. 17502048), 50 ng/mL human EGF (Thermo Fisher Scientific, cat. PHG0311), and 10 microM Y-27632 dihydrochloride (Tocris Bioscience, cat. 1254). The K12877-001-R-J1-PDC line was cultured in 6I media, which includes all 6C/Colon 1B media plus 10 ng/mL human FGF-10 (PeproTech, cat. 100-26), 1 ng/mL human FGF-2 (PeproTech, cat. 100-18B), 1 µM prostaglandin E2 (Tocris Bioscience, cat. 2296), […] hydrocortisone (Sigma-Aldrich, cat. H4001), and […] bovine insulin (Sigma-Aldrich, cat. I6634). The K86415-001-R-J1-PDC line was cultured in 6D media, which includes all 6C/Colon 1B media components minus the L-WRN conditioned media. The 485176-168-R4-J1-PDC was cultured in PANC media, which includes all 6C/Colon 1B media plus 100 ng/mL human FGF-10 (PeproTech, cat. 100-26), 500 nM SB-431542 (Selleckchem, cat. S1067), and 10 nM gastrin (Tocris Bioscience, cat. 3006). […]

[1] = compound alone, run of 06/10/2024
[2] = compound alone, run of 05/20/2024
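Note: spheroids exposed to compound for seven days before viability readout.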

Row | IC50 (curve of compound) | Compound | viability, T/C (compound 0.0316 µM) | viability, T/C (compound 10 µM) | viability, T/C (compound 0.1 µM) | viability, T/C (compound 0.316 µM) | viability, T/C (compound 1 µM) | viability, T/C (compound 3.16 µM) | other results
1 |  | C#Cc1c(F)ccc2cc(O)cc(-c3ncc4c(N5CC6CCC(C5)N6)nc(OCC56CCCN5CC(F)C6)nc4c3F)c12 (stereo unspecified) | 87.2% [middle of 8 runs] | 71.8% [middle of 8 runs] |  |  |  |  | IC50 [1]: > 10 µM
2 | > 1 µM | C=CC(=O)N1CCN(c2nc(OCC3CCCN3C)nc3c(F)c(-c4nc(N)cc(C)c4C(F)(F)F)c(Cl)cc23)C(C)C1 (stereo unspecified) |  |  | 102% [middle of 12 runs] | 95.8% [middle of 12 runs] | 85.1% [middle of 12 runs] |  | IC50 [1]: > 1 µM
3 | > 1 µM | C=CC(=O)Nc1cc(Nc2nccc(-c3cn(C)c4ccccc34)n2)c(OC)cc1N(C)CCN(C)C |  |  |  | 85.7% [middle of 4 runs] | 71.4% [middle of 4 runs] |  | viability, T/C (compound 0.00316 µM): 104% [middle of 4 runs]
4 | < 0.0316 µM | CC(=O)OC12COC1CC(O)C1(C)C(=O)C(O)C3=C(C)C(OC(=O)C(O)C(NC(=O)OC(C)(C)C)c4ccccc4)CC(O)(C(OC(=O)c4ccccc4)C21)C3(C)C (stereo unspecified) | 14.5% [middle of 4 runs] | 25.8% [middle of 4 runs] | 14.6% [middle of 4 runs] | 17.6% [middle of 4 runs] | 15.2% [middle of 4 runs] | 24.6% [middle of 4 runs] | 
5 | 476 nM [middle of 4 runs] | CC(C)NCC(C(=O)N1CCN(c2ncnc3c2C(C)CC3O)CC1)c1ccc(Cl)cc1 (stereo unspecified) |  | 12.6% [middle of 4 runs] | 81.7% [middle of 4 runs] | 62.2% [middle of 4 runs] | 37.9% [middle of 4 runs] | 18% [middle of 4 runs] | 
6 | 3.6 nM [middle of 4 runs] | CC(C)n1nc(-c2ccc3oc(N)nc3c2)c2c(N)ncnc21 | 8.74% [middle of 4 runs] |  | 7.93% [middle of 4 runs] |  |  |  | viability, T/C (compound 0.00316 µM): 44.1% (2×) and 55.6% and 55.3%; viability, T/C (compound 0.01 µM): 17% [middle of 4 runs]
7 |  | CC(Nc1ccc2c(c1)OCCn1cc(N3C(=O)OCC3C(F)F)nc1-2)C(N)=O (stereo unspecified) | 75.9% [middle of 4 runs] | 14.1% [middle of 4 runs] | 49.6% [middle of 4 runs] | 32% [middle of 4 runs] | 21.9% [middle of 4 runs] |  | 
8 | 0.00147 µM and < 0.000949 µM and 0.00151 µM | CC1(C)CCC(Nc2ncc(C(F)(F)F)c(-c3c[nH]c4c(P(C)(C)=O)c(C#N)ccc34)n2)CN1 (stereo unspecified) |  |  |  |  |  |  | viability, T/C (compound 0.000949 µM): 65.3% [middle of 4 runs]; viability, T/C (compound 0.003 µM): 24.7% [middle of 4 runs]; viability, T/C (compound 0.00949 µM): 15.5% [middle of 4 runs]; viability, T/C (compound 0.03 µM): 9.86% [middle of 4 runs]; viability, T/C (compound 0.0949 µM): 8.72% [middle of 4 runs]; viability, T/C (compound 0.3 µM): 8.1% [middle of 4 runs]
9 | 87.8 nM [middle of 4 runs] | CC1(O)CCCC1n1c(=O)c(C(F)F)cc2cnc(NC3CCN(S(C)(=O)=O)CC3)nc21 (stereo unspecified) | 79.5% [middle of 4 runs] | 2.67% [middle of 4 runs] | 43% [middle of 4 runs] | 26.1% [middle of 4 runs] | 22.1% [middle of 4 runs] | 19.5% [middle of 4 runs] | 
10 | 778 nM [middle of 4 runs] | CCC(CC)c1cc(NC2CCC(N)C2)n2nccc2n1 (stereo unspecified) | 101% [middle of 4 runs] | 2.61% [middle of 4 runs] |  |  | 41.9% [middle of 4 runs] | 2.95% [middle of 4 runs] | 
11 |  | CCN1CCN(Cc2ccc(Nc3ncc(F)c(-c4cc(F)c5nc(C)n(C(C)C)c5c4)n3)nc2)CC1 |  |  | 28.7% [middle of 4 runs] | 23.5% [middle of 4 runs] | 17.6% [middle of 4 runs] |  | viability, T/C (compound 0.01 µM): 59.8% [middle of 4 runs]
12 | 2.32 nM [middle of 4 runs] | CCc1c2c(nc3ccc(O)cc13)-c1cc3c(c(=O)n1C2)COC(=O)[C@]3(O)CC |  |  |  |  |  |  | viability, T/C (compound 0.000949 µM): 82% [middle of 4 runs]; viability, T/C (compound 0.003 µM): 39.4% [middle of 4 runs]; viability, T/C (compound 0.00949 µM): 17.2% [middle of 4 runs]; viability, T/C (compound 0.03 µM): 6.46% [middle of 4 runs]; viability, T/C (compound 0.0949 µM): 3.27% [middle of 4 runs]; viability, T/C (compound 0.3 µM): 2.43% [middle of 4 runs]
13 |  | CCn1c(-c2cc(N3CCN(C)CC3)cnc2C(C)OC)c2c3cc(ccc31)-c1csc(n1)CC(NC(=O)C1CC1C)C(=O)N1CCCC(N1)C(=O)OCC(C)(C)C2 (stereo unspecified) |  |  |  |  |  |  | viability, T/C (compound 0.000949 µM): 108% [middle of 8 runs]; viability, T/C (compound 0.003 µM): 103% [middle of 8 runs]; viability, T/C (compound 0.03 µM): 105% [middle of 8 runs]; viability, T/C (compound 0.0949 µM): 111% [middle of 8 runs]; IC50 [2]: > 0.3 µM
14 |  | CCn1c(-c2cccnc2C(C)OC)c2c3cc(ccc31)N1CCOC(CC(NC(=O)C(C(C)C)N(C)C(=O)C3(F)CCN(C(=O)C#CC(C)(C)N(C)C)CC3)C(=O)N3CCCC(N3)C(=O)OCC(C)(C)C2)C1 (stereo unspecified) |  |  |  |  |  |  | viability, T/C (compound 0.003 µM): 111% [middle of 8 runs]; IC50 [2]: > 0.3 µM
15 | 2.13 µM [middle of 4 runs] | C[C@@H](NC(=O)c1ncnc(N)c1Cl)c1ncc(C(=O)Nc2cc(C(F)(F)F)c(Cl)cn2)s1 |  | 32% [middle of 4 runs] | 109% [middle of 4 runs] | 91.3% [middle of 4 runs] | 64.9% [middle of 4 runs] |  | 
16 | > 10 µM | Cc1nc(N2CCC3(CC2)COC(C)C3N)c(CO)nc1Sc1ccnc(N)c1Cl (stereo unspecified) | 91.6% [middle of 4 runs] | 95.3% [middle of 4 runs] | 102% [middle of 4 runs] | 101% [middle of 4 runs] |  | 100% [middle of 4 runs] | 
17 | > 10 µM | NC1c2ccccc2OC12CCN(c1cnc3c(N4CCCc5ncccc54)n[nH]c3n1)CC2 (stereo unspecified) | 102% [middle of 4 runs] | 68.6% [middle of 4 runs] |  |  |  | 98.5% [middle of 4 runs] | 
18 | < 0.00316 µM | Nc1ccn(C2OC(CO)C(O)C2(F)F)c(=O)n1 (stereo unspecified) | 5.62% [middle of 4 runs] |  | 5.46% [middle of 4 runs] | 5.2% [middle of 4 runs] | 5.11% [middle of 4 runs] |  | viability, T/C (compound 0.00316 µM): 25.7% [middle of 4 runs]; viability, T/C (compound 0.01 µM): 6.96% [middle of 4 runs]
19 | < 0.00316 µM | O=C(c1ccc(F)c(F)c1Nc1ccc(I)cc1F)N1CC(O)([C@@H]2CCCCN2)C1 | 33% [middle of 4 runs] |  | 12.2% [middle of 4 runs] | 7.62% [middle of 4 runs] | 6.03% [middle of 4 runs] |  | viability, T/C (compound 0.00316 µM): 35.9% [middle of 4 runs]; viability, T/C (compound 0.01 µM): 35.3% [middle of 4 runs]
